Experimental data taken from patent publication US9332764B2, “Aqueous composition for inactivating sporulated and/or non-sporulated coccidian parasites” (Ecolab USA Inc., priority 2007, dated 2016).
Entries after “also recorded” stand apart in the source; their conditions may differ.

Legend:
[1] = test system: Eimeria oocysts; settings: cited from earlier work
[2] = test system: sporulated and/or non-sporulated Coccidian parasites; settings: preferably around 800 ppm; cited from earlier work
[3] = test system: sporulated oocysts of Eimeria papillata; experiment: Infection of mice with treated sporulated oocysts, excretion of oocysts in excrements; type: in vivo, Eimeria papillata in Balb/C-mice; parameters: key to excretion 4 dpi / excretion 5 dpi / excretion 6 dpi / excretion 7 dpi: +++: massive excretion of oocysts; ++: excretion of many oocysts; +: excretion of few oocysts; −: no oocysts detectable; settings: for excretion 4 dpi / excretion 5 dpi / excretion 6 dpi / excretion 7 dpi: 60 min; for excretion 4 dpi: 4 days after infection; for excretion 5 dpi: 5 days after infection; for excretion 6 dpi: 6 days after infection; for excretion 7 dpi: 7 days after infection
Description: (§1) For the experiments 20 g female Balb/C-mice were used. […] The flotation medium was prepared containing 124.5 g NaCl and 435.8 g saccharide which was diluted with water and filled up to 1 litre. Fresh non-sporulated oocysts were prepared. Subsequently the Balb/C-mice were infected with 20,000 sporulated oocysts. From the fourth day after infection, fresh mouse excrement is collected and isolated by flotation. Residual flotation medium is removed by washing three times with clean water.
Sporulated infectious oocysts were incubated at 25° C. for one week.
(§2) A chlorine dioxide solution is prepared by mixing a solution containing sodium chlorite and an acidic solution. By reaction chlorine dioxide is produced. The solution comprises 120 ppm chorine dioxide. By further dilution, chlorine dioxide solutions of 40, 20, 10, 4, 1, and 0.5 ppm are produced which are immediately used for the experiments.
A further series of experiments was performed in order to evaluate the inactivation pattern of sporulated oocysts. […] After that the oocyst suspensions were washed with water for three times and 20,000 oocysts were orally administered to a mouse. Per concentration one mouse was used. In addition two mice were treated, each with 20,000 non-treated, sporulated oocysts for control purposes. From the fourth day after infection samples of the excrements of the mice were taken daily and the presence of oocysts of Eimeria papillata was examined. (see table 3) […]

[4] = test system: non-sporulated oocysts of Eimeria papillata; experiment: Incubation of fresh non-sporulated oocysts, then check for sporulation after one week at 25° C.; type: cell-based; settings: incubation 60 min; for result (sporulation): room temperature, no surfactant
Description: as §1, §2
Oocysts of Eimeria papillata were filtered from fresh mice excrements and incubated for 60 min with freshly produced chlorine dioxide solution at concentrations of 40, 20, 10, 4, 1, 0.5 ppm at room temperature. After 60 min incubation time the oocyst suspensions were washed with water and cultured for sporulation in 1 ml water. The probes were incubated for one week at 25° C. As control a non-treated, non-sporulated oocyst sample was used which was also incubated for one week at 25° C. After seven days it was checked if a sporulation occurred. (see table 1)
In the same way experiments were carried out with the aqueous composition according to the invention comprising chlorine dioxide and as an anionic surfactant Dofax 2A1 (Dow Chemicals) which is a mixture of a disodium oxybis(dodecyl benzenesulfonate) and a dodecyl(sulfophenoxy)disodium salt of benzene sulfonic acid. The composition comprises between 0.5 to 25 ppm chlorine dioxide and 0.2 wt. % of the anionic surfactant. (see table 2)

[5] = test system: sporulated and/or non-sporulated Coccidian parasites; experiment: Inactivation of Coccidian parasites by chlorine dioxide solutions, general statements; settings: chlorine dioxide alone, concentrations below 120 ppm
Source text: Therefore the disadvantage of the method described in JP 2004-210726 is that high concentrations of chlorine dioxide have to be used in order to sufficiently inactivate the Coccidian parasites. The inventors of the present invention have performed experiments to lower the limit of the concentration of chlorine dioxide in a solution which is still effective, inactivating Coccidian parasites.
In addition the inventors have also investigated whether combinations of chlorine dioxide with other surfactants like for example alkyl sulfonates, amine oxides, ethoxylated polyalcohols, quaternary ammonium compounds, lauryl hydroxy sulfane, and alkyl ether sulfates have an effect in combination with lower concentrations of chlorine dioxide.

[6] = oocysts treated with ClO2 4 ppm
[7] = oocysts treated with ClO2 10 ppm
[8] = oocysts treated with ClO2 20 ppm
[9] = oocysts treated with ClO2 40 ppm
[10] = oocysts treated with ClO2 120 ppm
[11] = oocysts treated with ClO2 240 ppm

## O=CCCCC=O [glutaraldehyde]
[1]
  effectiveness for eradication of coccoid oocysts: ineffective

## OCl [sodium hypochlorite]
[1]
  effectiveness for eradication of coccoid oocysts: ineffective

## [O][Cl+][O-] [chlorine dioxide solution, chlorine dioxide]
[2]
  chlorine dioxide concentration known to completely inactivate sporulated and/or non-sporulated Coccidian parasites: above 200 ppm
[3]; chlorine dioxide between 4 and 40 ppm, incubation 60 min
  excretion of oocysts of Eimeria papillata in Balb/C-mice: cannot be avoided
[3]; concentrations of 120 ppm and 240 ppm
  detectable oocysts: no detectable oocysts
[3]; [6]
  excretion 4 dpi: ++
  excretion 5 dpi: ++
  excretion 6 dpi: ++
  excretion 7 dpi: +
[3]; [7]
  excretion 4 dpi: ++
  excretion 5 dpi: ++
  excretion 6 dpi: ++
  excretion 7 dpi: +
[3]; [8]
  excretion 4 dpi: ++
  excretion 5 dpi: ++
  excretion 6 dpi: +
  excretion 7 dpi: +
[3]; [9]
  excretion 4 dpi: +
  excretion 5 dpi: +
  excretion 6 dpi: +
  excretion 7 dpi: +
[3]; [10]
  excretion 4 dpi: −
  excretion 5 dpi: −
  excretion 6 dpi: −
  excretion 7 dpi: −
[3]; [11]
  excretion 4 dpi: −
  excretion 5 dpi: −
  excretion 6 dpi: −
  excretion 7 dpi: −
[4]; ClO2 0.5 ppm
  result (sporulation): complete
[4]; ClO2 1 ppm
  result (sporulation): complete
[4]; ClO2 4 ppm
  result (sporulation): complete
[4]; ClO2 10 ppm
  result (sporulation): complete
[4]; ClO2 20 ppm
  result (sporulation): complete
[4]; ClO2 40 ppm
  result (sporulation): partial
[4]; chlorine dioxide only, concentrations below 40 ppm
  sporulation: complete or partial sporulation
[5]
  inactivation / eradication of coccoid organisms: ineffective; also recorded: will not inactivate

## C=O [formalin]
[1]
  effectiveness for eradication of coccoid oocysts: ineffective

## O=S(=O)([O-])[O-].[Cu+2] [copper sulfate]
[1]
  effectiveness for eradication of coccoid oocysts: ineffective

## CC(=O)OO [peracetic acid]
[1]
  effectiveness for eradication of coccoid oocysts: ineffective

## cresylic acid
[1]
  effectiveness for eradication of coccoid oocysts: ineffective

## [I-].[K+] [potassium iodide]
[1]
  effectiveness for eradication of coccoid oocysts: ineffective

## O=S(=O)(O)O [sulfuric acid]
[1]
  effectiveness for eradication of coccoid oocysts: ineffective

## [K+].[K+].[O]=[Cr](=[O])([O-])[O][Cr](=[O])(=[O])[O-] [potassium dichromate]
[1]
  effectiveness for eradication of coccoid oocysts: ineffective

## [K+].[OH-] [potassium hydroxide]
[1]
  effectiveness for eradication of coccoid oocysts: ineffective

## benzalkonium chloride
[1]
  effectiveness for eradication of coccoid oocysts: ineffective
